Key:
Rattus norvegicus [1] = experiment: Distribution of radio activity in tissues of unfasted male rats was measured at 60 min of time in blood after intravenous administration; assay type: ADME, organism-based; details: in vivo, 1 h
Rattus norvegicus [2] = experiment: Distribution of radio activity in tissues of unfasted male rats was measured at 60 min of time in brain after intravenous administration; assay type: ADME, organism-based; details: in vivo, 1 h
Rattus norvegicus [3] = experiment: Distribution of radio activity in tissues of unfasted male rats was measured at 60 min of time in heart after intravenous administration; assay type: ADME, organism-based; details: in vivo, 1 h
Rattus norvegicus [4] = experiment: Distribution of radio activity in tissues of unfasted male rats was measured at 60 min of time in kidney after intravenous administration; assay type: ADME, organism-based; details: in vivo, 1 h
Rattus norvegicus [5] = experiment: Distribution of radio activity in tissues of unfasted male rats was measured at 60 min of time in liver after intravenous administration; assay type: ADME, organism-based; details: in vivo, 1 h
Rattus norvegicus [6] = experiment: Distribution of radio activity in tissues of unfasted male rats was measured at 60 min of time in lung after intravenous administration; assay type: ADME, organism-based; details: in vivo, 1 h
Rattus norvegicus [7] = experiment: Distribution of radio activity in tissues of unfasted male rats was measured at 60 min of time in muscle after intravenous administration; assay type: ADME, organism-based, Muscle tissue; details: in vivo, 1 h
Rattus norvegicus [8] = experiment: Distribution of radio activity in tissues of unfasted male rats was measured at 2 min of time in thyroid after intravenous administration; assay type: ADME, organism-based, Thyroid gland; details: in vivo
Rattus norvegicus [9] = experiment: Distribution of radio activity in tissues of unfasted male rats was measured at 30 min of time in blood after intravenous administration; assay type: ADME, organism-based; details: in vivo, 0.5 h
Rattus norvegicus [10] = experiment: Distribution of radio activity in tissues of unfasted male rats was measured at 30 min of time in brain after intravenous administration; assay type: ADME, organism-based; details: in vivo, 0.5 h
Rattus norvegicus [11] = experiment: Distribution of radio activity in tissues of unfasted male rats was measured at 30 min of time in heart after intravenous administration; assay type: ADME, organism-based; details: in vivo, 0.5 h
Rattus norvegicus [12] = experiment: Distribution of radio activity in tissues of unfasted male rats was measured at 60 min of time in skin after intravenous administration; assay type: ADME, organism-based; details: in vivo, 1 h
Rattus norvegicus [13] = experiment: Distribution of radio activity in tissues of unfasted male rats was measured at 60 min of time in spleen after intravenous administration; assay type: ADME, organism-based; details: in vivo, 1 h
Rattus norvegicus [14] = experiment: Distribution of radio activity in tissues of unfasted male rats was measured at 60 min of time in thyroid after intravenous administration; assay type: ADME, organism-based, Thyroid gland; details: in vivo, 1 h
Rattus norvegicus [15] = experiment: Distribution of radio activity in tissues of unfasted male rats was measured as regional uptake at 120 min of time in cortex after intravenous administration; assay type: ADME, organism-based; details: in vivo, 2 h
Rattus norvegicus [16] = experiment: Distribution of radio activity in tissues of unfasted male rats was measured as regional uptake at 120 min of time in hippocampus after intravenous administration; assay type: ADME, organism-based; details: in vivo, 2 h
Rattus norvegicus [17] = experiment: Distribution of radio activity in tissues of unfasted male rats was measured as regional uptake at 120 min of time in striatum after intravenous administration; assay type: ADME, organism-based; details: in vivo, 2 h
Rattus norvegicus [18] = experiment: Distribution of radio activity in tissues of unfasted male rats was measured as regional uptake at 2 min of time in ST/CB after intravenous administration; assay type: ADME, organism-based; details: in vivo
Rattus norvegicus [19] = experiment: Distribution of radio activity in tissues of unfasted male rats was measured as regional uptake at 2 min of time in cerebellum after intravenous administration; assay type: ADME, organism-based; details: in vivo
Rattus norvegicus [20] = experiment: Distribution of radio activity in tissues of unfasted male rats was measured as regional uptake at 2 min of time in cortex after intravenous administration; assay type: ADME, organism-based; details: in vivo
Rattus norvegicus [21] = experiment: Distribution of radio activity in tissues of unfasted male rats was measured as regional uptake at 2 min of time in hippocampus after intravenous administration; assay type: ADME, organism-based; details: in vivo
Rattus norvegicus [22] = experiment: Distribution of radio activity in tissues of unfasted male rats was measured as regional uptake at 2 min of time in striatum after intravenous administration; assay type: ADME, organism-based; details: in vivo
Rattus norvegicus [23] = experiment: Distribution of radio activity in tissues of unfasted male rats was measured as regional uptake at 30 min of time in ST/CB after intravenous administration; assay type: ADME, organism-based; details: in vivo, 0.5 h
Rattus norvegicus [24] = experiment: Distribution of radio activity in tissues of unfasted male rats was measured as regional uptake at 30 min of time in cerebellum after intravenous administration; assay type: ADME, organism-based; details: in vivo, 0.5 h
Rattus norvegicus [25] = experiment: Distribution of radio activity in tissues of unfasted male rats was measured as regional uptake at 30 min of time in cortex after intravenous administration; assay type: ADME, organism-based; details: in vivo, 0.5 h
Rattus norvegicus [26] = experiment: Distribution of radio activity in tissues of unfasted male rats was measured as regional uptake at 30 min of time in hippocampus after intravenous administration; assay type: ADME, organism-based; details: in vivo, 0.5 h
Rattus norvegicus [27] = experiment: Distribution of radio activity in tissues of unfasted male rats was measured as regional uptake at 30 min of time in striatum after intravenous administration; assay type: ADME, organism-based; details: in vivo, 0.5 h
Rattus norvegicus [28] = experiment: Distribution of radio activity in tissues of unfasted male rats was measured as regional uptake at 60 min of time in ST/CB after intravenous administration; assay type: ADME, organism-based; details: in vivo, 1 h
Rattus norvegicus [29] = experiment: Distribution of radio activity in tissues of unfasted male rats was measured as regional uptake at 60 min of time in cerebellum after intravenous administration; assay type: ADME, organism-based; details: in vivo, 1 h
Rattus norvegicus [30] = experiment: Distribution of radio activity in tissues of unfasted male rats was measured at 2 min of time in spleen after intravenous administration; assay type: ADME, organism-based; details: in vivo
Rattus norvegicus [31] = experiment: Distribution of radio activity in tissues of unfasted male rats was measured at 2 min of time in liver after intravenous administration; assay type: ADME, organism-based; details: in vivo

**Q.** Which Injected dose/organ (Rattus norvegicus [1]) does the source give for `COC(=O)C1C(c2ccc(Cl)cc2)CC2CCC1N2C/C=C/I` (stereo unspecified) here?
**A.** 5.24%

**Q.** What about the Injected dose/organ (Rattus norvegicus [2]) of the same compound?
**A.** 0.28%

**Q.** What about the Injected dose/organ (Rattus norvegicus [3]) of the same compound?
**A.** 0.19%

**Q.** And the Injected dose/organ (Rattus norvegicus [4])?
**A.** 0.58%

**Q.** And the Injected dose/organ (Rattus norvegicus [5])?
**A.** 1.97%

**Q.** And the Injected dose/organ (Rattus norvegicus [6])?
**A.** 0.4%

**Q.** What about the Injected dose/organ (Rattus norvegicus [7]) of the same compound?
**A.** 12.14%

**Q.** What about the Injected dose/organ (Rattus norvegicus [8]) of the same compound?
**A.** 0.06%

**Q.** What about the Injected dose/organ (Rattus norvegicus [9]) of the same compound?
**A.** 7.12%

**Q.** And the Injected dose/organ (Rattus norvegicus [10])?
**A.** 0.58%

**Q.** What about the Injected dose/organ (Rattus norvegicus [11]) of the same compound?
**A.** 0.29%

**Q.** And the Injected dose/organ (Rattus norvegicus [12])?
**A.** 23.9%

**Q.** What about the Injected dose/organ (Rattus norvegicus [13]) of the same compound?
**A.** 0.12%

**Q.** What about the Injected dose/organ (Rattus norvegicus [14]) of the same compound?
**A.** 0.97%

**Q.** What about the Dose/g (Rattus norvegicus [15]) of the same compound?
**A.** 0.05%

**Q.** What about the Dose/g (Rattus norvegicus [16]) of the same compound?
**A.** 0.038%

**Q.** And the Dose/g (Rattus norvegicus [17])?
**A.** 0.61%

**Q.** And the Dose/g (Rattus norvegicus [18])?
**A.** 1.18%

**Q.** What about the Dose/g (Rattus norvegicus [19]) of the same compound?
**A.** 0.97%

**Q.** And the Dose/g (Rattus norvegicus [20])?
**A.** 1.15%

**Q.** And the Dose/g (Rattus norvegicus [21])?
**A.** 0.84%

**Q.** And the Dose/g (Rattus norvegicus [22])?
**A.** 1.15%

**Q.** What about the Dose/g (Rattus norvegicus [23]) of the same compound?
**A.** 6.91%

**Q.** And the Dose/g (Rattus norvegicus [24])?
**A.** 0.23%

**Q.** And the Dose/g (Rattus norvegicus [25])?
**A.** 0.22%

**Q.** And the Dose/g (Rattus norvegicus [26])?
**A.** 0.26%

**Q.** What about the Dose/g (Rattus norvegicus [27]) of the same compound?
**A.** 1.67%

**Q.** And the Dose/g (Rattus norvegicus [28])?
**A.** 15.9%

**Q.** What about the Dose/g (Rattus norvegicus [29]) of the same compound?
**A.** 0.077%

**Q.** And the Injected dose/organ (Rattus norvegicus [30])?
**A.** 0.41%

**Q.** What about the Injected dose/organ (Rattus norvegicus [31]) of the same compound?
**A.** 11.77%

From ChEMBL document CHEMBL1127517 (J Med Chem, 1994)
